Target: T1, Recombinant human liver GK1 (GST-GK) (Homo sapiens, UniProt P35557)
T1 construct: made in house; host or cells: E. coli
T1 sequence (P35557 1-466 isoform P35557-2): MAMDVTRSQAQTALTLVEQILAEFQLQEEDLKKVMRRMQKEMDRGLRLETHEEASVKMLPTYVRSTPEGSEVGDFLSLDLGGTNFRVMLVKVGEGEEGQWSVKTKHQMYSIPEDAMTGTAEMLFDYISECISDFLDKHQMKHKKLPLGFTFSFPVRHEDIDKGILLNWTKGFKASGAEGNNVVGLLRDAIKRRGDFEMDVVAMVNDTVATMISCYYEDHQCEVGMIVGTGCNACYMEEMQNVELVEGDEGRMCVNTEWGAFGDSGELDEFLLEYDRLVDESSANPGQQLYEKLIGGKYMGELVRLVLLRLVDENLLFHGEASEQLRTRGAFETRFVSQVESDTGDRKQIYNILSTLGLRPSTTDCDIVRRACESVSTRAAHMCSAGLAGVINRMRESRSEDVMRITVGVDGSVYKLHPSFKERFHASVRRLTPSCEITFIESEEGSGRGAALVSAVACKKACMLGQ
Test: In vitro glucokinase activity, G6PDH-coupled spectrophotometric assay
Format: biochemical
Conditions: 5 mM D-glucose, 30° C.; for SC1.5 (concentration of activator that produced a 50% increase in the activity of GK): pH 7.1
Procedure: Glucokinase In Vitro Assay Protocol: Glucokinase (GK) was assayed by coupling the production of glucose-6-phosphate to the generation of NADH with glucose-6-phosphate dehydrogenase (G6PDH, 0.75-1 kunits/mg; Boehringer Mannheim, Indianapolis, Ind.) from Leuconostoc mesenteroides as the coupling enzyme (Scheme 2).
Recombinant human liver GK1 was expressed in E. coli as a glutathione S-transferase fusion protein (GST-GK) [Liang et al, 1995] and was purified by chromatography over a glutathione-Sepharose 4B affinity column using the procedure provided by the manufacturer (Amersham Pharmacia Biotech, Piscataway, N.J.).
The assay was conducted at 30° C. in a flat bottom 96-well tissue culture plate from Costar (Cambridge, Mass.) with a final incubation volume of 120 μL. The incubation reaction contained the following: 25 mM Hepes buffer (pH 7.1), 25 mM KCl, 5 mM D-glucose, 1 mM ATP, 1.8 mM NAD, 2 mM MgCl2, 1 μM sorbitol-6-phosphate, 1 mM dithiothreitol, test drug or 10% dimethylsulfoxide, ˜7 units/ml G6PDH, and GK (see below). All organic reagents were >98% pure and were from Boehringer Mannheim with the exceptions of D-glucose and Hepes which were from Sigma Chemical Co, St Louis, Mo. Test compounds were dissolved in dimethylsulfoxide and were added to the incubation reaction minus GST-GK in a volume of 12 μL to yield a final dimethylsulfoxide concentration of 10%. This mix was pre-incubated in the temperature controlled chamber of a SPECTRAmax 250 microplate spectrophotometer (Molecular Devices Corporation, Sunnyvale, Calif.) for 10 minutes to allow temperature equilibrium and then the reaction was started by the addition of 20 μL GST-GK.
After addition of enzyme, the increase in optical density (OD) at 340 nm was monitored spectrophotometrically to determine the rate of change (OD340 per min). The GK activity (OD340/min) in control wells (10% dimethylsulfoxide minus GK activators) was compared with the activity in wells containing test GK activators, and the concentration of activator that produced a 50% increase in the activity of GK, i.e., the SC1.5, was calculated.

Row | Structure (SMILES) | SC1.5 (concentration of activator that produced a 50% increase in the activity of GK) [µM] | fold induction at 30 µM
1 | O=C1C(=O)N(C(CC2CCCC2)C(=O)Nc2cnccn2)c2ccccc21 (centres unmarked) [Example 1, 3-Cyclopentyl-2-(2,3-dioxo-2,3-dihydro-indol-1-yl)-N-pyrazin-2-yl-propionamide] | 18.64 | –
2 | O=C(Nc1cnccn1)C(CC1CCCC1)N1C(=O)Cc2ccccc21 (centres unmarked) [Example 2, 3-Cyclopentyl-2-(2-oxo-2,3-dihydro-indol-1-yl)-N-pyrazin-2-yl-propionamide] | 5.93 | –
3 | O=C(Nc1nccs1)C(CC1CCCC1)N1C(=O)Cc2ccccc21 (centres unmarked) [Example 3, 3-Cyclopentyl-2-(2-oxo-2,3-dihydro-indol-1-yl)-N-thiazol-2-yl-propionamide] | 3.3 | –
4 | O=C1C(=O)N(C(CC2CCCC2)C(=O)Nc2nccs2)c2ccccc21 (centres unmarked) [Example 4, 3-Cyclopentyl-2-(2,3-dioxo-2,3-dihydro-indol-1-yl)-N-thiazol-2-yl-propionamide] | 5.21 | –
5 | Cn1ccc(NC(=O)C(CC2CCCC2)N2C(=O)C(=O)c3ccccc32)n1 (centres unmarked) [Example 5, 3-Cyclopentyl-2-(2,3-dioxo-2,3-dihydro-indol-1-yl)-N-(1-methyl-1H-pyrazol-3-yl)-propionamide] | – | 1.47
6 | O=C1C(=O)N(C(CC2CCCC2)C(=O)Nc2ccccn2)c2ccccc21 (centres unmarked) [Example 6, 3-Cyclopentyl-2-(2,3-dioxo-2,3-dihydro-indol-1-yl)-N-pyridin-2-yl-propionamide] | 5.19 | –
7 | Cn1ccc(NC(=O)C(CC2CCCC2)N2C(=O)Cc3ccccc32)n1 (centres unmarked) [Example 7, 3-Cyclopentyl-N-(1-methyl-1H-pyrazol-3-yl)-2-(2-oxo-2,3-dihydro-indol-1-yl)-propionamide] | 17.55 | –
8 | O=C(Nc1ccccn1)C(CC1CCCC1)N1C(=O)Cc2ccccc21 (centres unmarked) [Example 8, 3-Cyclopentyl-2-(2-oxo-2,3-dihydro-indol-1-yl)-N-pyridin-2-yl-propionamide] | 4.93 | –
9 | CC(C)CC(C(=O)Nc1nccs1)N1C(=O)C(=O)c2ccccc21 (centres unmarked) [Example 10, 2-(2,3-Dioxo-2,3-dihydro-indol-1-yl)-4-methyl-pentanoic acid thiazol-2-ylamide] | – | 1.2
10 | O=C1C(=O)N(C(CC2CCCC2)C(=O)Nc2cnccn2)c2cccc(Cl)c21 (centres unmarked) [Example 13, 2-(4-Chloro-2,3-dioxo-2,3-dihydro-indol-1-yl)-3-cyclopentyl-N-pyrazin-2-yl-propionamide] | 6.94 | –
11 | Cn1ccc(NC(=O)C(CC2CCCC2)N2C(=O)C(=O)c3c(Cl)cccc32)n1 (centres unmarked) [Example 15, 2-(4-Chloro-2,3-dioxo-2,3-dihydro-indol-1-yl)-3-cyclopentyl-N-(1-methyl-1H-pyrazol-3-yl)-propionamide] | 6.5 | –
12 | O=C1C(=O)N(C(CC2CCCC2)C(=O)Nc2nccs2)c2cccc(Cl)c21 (centres unmarked) [Example 16, 2-(4-Chloro-2,3-dioxo-2,3-dihydro-indol-1-yl)-3-cyclopentyl-N-thiazol-2-yl-propionamide] | 3.91 | –
13 | CC(C)CC(C(=O)Nc1ccn(C)n1)N1C(=O)C(=O)c2c(Cl)cccc21 (centres unmarked) [Example 19, 2-(4-Chloro-2,3-dioxo-2,3-dihydro-indol-1-yl)-4-methyl-pentanoic acid (1-methyl-1H-pyrazol-3-yl)-amide] | – | 1.24
14 | CC(C)CC(C(=O)Nc1nccs1)N1C(=O)C(=O)c2c(Cl)cccc21 (centres unmarked) [Example 20, 2-(4-Chloro-2,3-dioxo-2,3-dihydro-indol-1-yl)-4-methyl-pentanoic acid thiazol-2-ylamide] | 7.72 | –
15 | O=C(Nc1nccs1)C(CC1CCCC1)N1C(=O)Cc2c(Cl)cccc21 (centres unmarked) [Example 22, 2-(4-Chloro-2-oxo-2,3-dihydro-indol-1-yl)-3-cyclopentyl-N-thiazol-2-yl-propionamide] | 1.98 | –
16 | Cn1ccc(NC(=O)C(CC2CCCC2)N2C(=O)Cc3c(Cl)cccc32)n1 (centres unmarked) [Example 23, 2-(4-Chloro-2-oxo-2,3-dihydro-indol-1-yl)-3-cyclopentyl-N-(1-methyl-1H-pyrazol-3-yl)-propionamide] | 7.4 | –
17 | O=C(Nc1cnccn1)C(CC1CCCC1)N1C(=O)Cc2c(Cl)cccc21 (centres unmarked) [Example 24, 2-(4-Chloro-2-oxo-2,3-dihydro-indol-1-yl)-3-cyclopentyl-N-pyrazin-2-yl-propionamide] | 2.66 | –
18 | O=C1C(=O)N(C(CC2CCCC2)C(=O)Nc2cnccn2)c2ccc(OC(F)(F)F)cc21 (centres unmarked) [Example 29, 3-Cyclopentyl-2-(2,3-dioxo-5-trifluoromethoxy-2,3-dihydro-indol-1-yl)-N-pyrazin-2-yl-propionamide] | 1.5 | –

Results, then the compound that gave them:

Row | SC1.5 (concentration of activator that produced a 50% increase in the activity of GK) [µM] | fold induction at 30 µM | Structure (SMILES)
19 | – | 1.33 | CC(C)CC(C(=O)Nc1ccccn1)N1C(=O)C(=O)c2ccccc21 (centres unmarked) [Example 9, 2-(2,3-Dioxo-2,3-dihydro-indol-1-yl)-4-methyl-pentanoic acid pyridin-2-ylamide]
20 | 16.22 | – | CC(C)CC(C(=O)Nc1nccs1)N1C(=O)Cc2ccccc21 (centres unmarked) [Example 11, 4-Methyl-2-(2-oxo-2,3-dihydro-indol-1-yl)-pentanoic acid thiazol-2-ylamide]
21 | 18.09 | – | CC(C)CC(C(=O)Nc1ccccn1)N1C(=O)Cc2ccccc21 (centres unmarked) [Example 12, 4-Methyl-2-(2-oxo-2,3-dihydro-indol-1-yl)-pentanoic acid pyridin-2-ylamide]
22 | 1.9 | – | O=C1C(=O)N(C(CC2CCCC2)C(=O)Nc2ccccn2)c2cccc(Cl)c21 (centres unmarked) [Example 14, 2-(4-Chloro-2,3-dioxo-2,3-dihydro-indol-1-yl)-3-cyclopentyl-N-pyridin-2-yl-propionamide]
23 | – | 1.39 | CC(C)CC(C(=O)Nc1cnccn1)N1C(=O)C(=O)c2c(Cl)cccc21 (centres unmarked) [Example 17, 2-(4-Chloro-2,3-dioxo-2,3-dihydro-indol-1-yl)-4-methyl-pentanoic acid pyrazin-2-ylamide]
24 | 13.42 | – | CC(C)CC(C(=O)Nc1ccccn1)N1C(=O)C(=O)c2c(Cl)cccc21 (centres unmarked) [Example 18, 2-(4-Chloro-2,3-dioxo-2,3-dihydro-indol-1-yl)-4-methyl-pentanoic acid pyridin-2-ylamide]
25 | 1.23 | – | O=C(Nc1ccccn1)C(CC1CCCC1)N1C(=O)Cc2c(Cl)cccc21 (centres unmarked) [Example 21, 2-(4-Chloro-2-oxo-2,3-dihydro-indol-1-yl)-3-cyclopentyl-N-pyridin-2-yl-propionamide]
26 | 16.78 | – | CC(C)CC(C(=O)Nc1cnccn1)N1C(=O)Cc2c(Cl)cccc21 (centres unmarked) [Example 25, 2-(4-Chloro-2-oxo-2,3-dihydro-indol-1-yl)-4-methyl-pentanoic acid pyrazin-2-ylamide]
27 | 6.77 | – | CC(C)CC(C(=O)Nc1ccccn1)N1C(=O)Cc2c(Cl)cccc21 (centres unmarked) [Example 26, 2-(4-Chloro-2-oxo-2,3-dihydro-indol-1-yl)-4-methyl-pentanoic acid pyridin-2-ylamide]
28 | – | 1.39 | CC(C)CC(C(=O)Nc1ccn(C)n1)N1C(=O)Cc2c(Cl)cccc21 (centres unmarked) [Example 27, 2-(4-Chloro-2-oxo-2,3-dihydro-indol-1-yl)-4-methyl-pentanoic acid (1-methyl-1H-pyrazol-3-yl)-amide]
29 | 9.95 | – | CC(C)CC(C(=O)Nc1nccs1)N1C(=O)Cc2c(Cl)cccc21 (centres unmarked) [Example 28, 2-(4-Chloro-2-oxo-2,3-dihydro-indol-1-yl)-4-methyl-pentanoic acid thiazol-2-ylamide]

Reference: patent US20120142705A1, “ISATIN AND OXINDOLE COMPOUNDS” (priority 2010, published 2012)
